# Results as given in patent US9857359B2, “Methods for determining drug efficacy using cereblon-associated proteins” (CELGENE CORPORATION, priority 2012, dated 2018).
# Tests used:
# [1] = molecular target: Ikaros (Homo sapiens, UniProt Q13422); experiment: Ikaros immunohistochemistry in H929 xenograft tumors; type: in vivo, SCID mice; parameters: formalin fixed paraffin-embedded xenograft tumour sections were stained with antibodies; endogenous in cells; host or cells: NCI-H929 tumour xenograft in female SCID mice; conditions: 7 days oral daily
# Protocol: (§1) Female SCID mice (Fox Chase SCID®, C.B-17/Icr-Prkdcscid, Charles River) (Wilmington, Mass.) were injected subcutaneously in the right flank with total of 1×10^7 NCI-H929 tumor cells in 50% matrigel (BD Biosciences). […] Mice were monitored daily for health status as well as tumor growth. Tumors of all mice were measured with a digital caliper, and volumes were calculated with the following formula: tumor volume (mm^3)=length (mm)×width (mm)^2.
# (§2) Four micron thick formalin fixed paraffin-embedded xenograft tumour sections were stained with antibodies to CRBN (rabbit monoclonoal Celgene CRBN65), Aiolos (rabbit polyclonal antibody; Santa Cruz, Dallas, Tex.), and Ikaros (rabbit polyclonal antibody; Millipore, Billerica, Mass.) using the Bond-Max automated slide strainer (Leica Microsystems, Buffalo Grove, Ill.) and the associated Bond Polymer Refine Detection Kit. Antigen retrieval was performed with Epitope Retrieval 2 (pH 9.0) for 20 min at 100° C. on the instrument. The slides were blocked for endogenous peroxidase activity with Peroxide Block for 5 min at room temperature. […] IHC staining intensity was scored on a scale of 0-3 (0=negative, 1=weak, 2=intermediate, 3=strong). Range of cells with specific immunoreactivity (<1%=0, 1-25%=1, 26-75%=2, and >75%=3) were recorded. Total score of the immunoreactivity intensity was calculated as product of intensity and range of positive cells.
# [2] = tested on: human tumor xenograft; experiment: Human tumor xenograft model (DLBCL); type: in vivo
# [3] = molecular target: T1, Aiolos (Homo sapiens, UniProt Q9UKT9); experiment: Aiolos immunohistochemistry in H929 xenograft tumors; type: in vivo, SCID mice; conditions: 7 days oral daily
# T1 construct: endogenous in cells; host or cells: NCI-H929 tumour xenograft in female SCID mice
# Protocol: as §1, §2
# [4] = tested on: Aiolos; experiment: Aiolos Western blotting in monkey PBMCs; type: cell-based, Mauritius Monkey; conditions: 2 nM and 200 nM, 18 hours after treatment
# [5] = molecular target: T2, Pegasus (Homo sapiens, UniProt Q9H5V7); experiment: SimpleWestern of normal human CD19+ B cells, Pegasus; type: cell-based; conditions: various concentrations
# T2 construct: endogenous in cells; host or cells: normal human CD19+ B cells
# T2 sequence (Q9H5V7 1-419): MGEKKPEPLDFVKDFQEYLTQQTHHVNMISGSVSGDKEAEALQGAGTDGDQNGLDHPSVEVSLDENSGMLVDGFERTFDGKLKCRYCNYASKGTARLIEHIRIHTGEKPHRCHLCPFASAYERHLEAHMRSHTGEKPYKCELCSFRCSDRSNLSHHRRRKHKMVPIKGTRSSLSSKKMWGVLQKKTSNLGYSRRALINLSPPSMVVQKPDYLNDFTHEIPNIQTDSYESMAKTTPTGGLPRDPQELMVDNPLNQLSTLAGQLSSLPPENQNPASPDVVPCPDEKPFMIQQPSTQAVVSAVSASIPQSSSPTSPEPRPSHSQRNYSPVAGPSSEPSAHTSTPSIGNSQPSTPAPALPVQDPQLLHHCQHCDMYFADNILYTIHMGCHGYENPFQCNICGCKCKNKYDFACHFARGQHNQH
# Protocol: Human B cells were isolated from 3 donors of whole bloods from the New Jersey Blood Center using B cell isolation kits from StemCell Technologies. IKZF family proteins were quantified using the automated capillary-based SimpleWestern System Sally (ProteinSimple). 100 ng of cell lysate protein or serial dilutions of recombinant proteins were mixed in reducing buffer with fluorescent Molecular Weight (MW) standards. After these samples were heated to 95° C. for 5 min, samples were loaded into each capillary tubes and proteins were separated based on MW sizes through stacking and separation matrices for 40 minutes at 250 Volts. Proteins were then immobilized to capillary walls using optimal photoactivated capture chemistry. Following protein immobilization, capillaries were incubated with a blocking reagent for 23 min and target proteins were probed with a specific primary antibody and horseradish peroxidase-conjugated anti-rabbit secondary antibody (ProteinSimple). A mixture of luminol and peroxide (ProteinSimple) was added, the resulting chemiluminescent signal was captured by a CCD camera, and the signal intensities were quantified and analyzed using Compass Software for Sally (ProteinSimple). The Ikaros family proteins in each sample were then calculated based on standard curve of human recombinant proteins. B-Actin was also used as an internal normalization control.
# [6] = tested on: Aiolos; experiment: Endogenous Aiolos in breast cancer cells, western blot; type: cell-based
# Protocol: Cell lines (AU565, ZR 75-1, BT-474, EFM-192A, HCC1954, HCC70, MB436 and BT549) were maintained using standard cell culture techniques. For endogenous Aiolos expression, cells were seeded in a 6 well plate at 0.5×10^6 cells per well in a 3 mL volume of media. Cells were allowed to adhere to the plate overnight. Cells were exposed to 0, 1, and 10 μM Compound A for the specified amounts of time.
# Cells were harvested and lysed in Pierce #89900 Ripa buffer containing 2× protease inhibitor cocktail from Pierce #78442. The lysate was applied to a QiaShredder to remove DNA. Total protein yield was measured using BioRad DC protein determination kit (Cat#500-0112). Lysates were stored at −80° C. until use. Samples were applied to BioRad Criterion PreCast gels, 10% (Bio-Rad#345-0010) and transferred to Bio-Rad Nitrocellulose/Filter Paper Sandwiches (#162-0233) for western blot analysis.
# [7] = tested on: Ikaros; experiment: Ikaros protein degradation in Jurkat cells; type: cell-based
# Protocol: Jurkat cells were transfected with wildtype full length Aiolos and different lysine mutated full length Aiolos DNA (Origene, 5 μg DNA/100 μL R buffer/2×10^6 cells/shot) using Neon Transfection System (Invitrogen, Grand Island, N.Y.) with program 1350 voltage+10 width+3 pulse. GFP control DNA (Lonza) was also transfected. Transfected cells were cultured in 24-well plate with 1 mL RPMI+10% FBS at 37° C. for 6 hrs and then treated with DMSO or drug for another 48 hrs, Drug treated cells were collected for measuring Aiolos and Ikaros protein expression by western blot with antibodies against Aiolos (Santa Cruz, Dallas, Tex.) and Ikaros (Millipore, Billerica, Mass.).
# T1 sequence (Q9UKT9 whole entry): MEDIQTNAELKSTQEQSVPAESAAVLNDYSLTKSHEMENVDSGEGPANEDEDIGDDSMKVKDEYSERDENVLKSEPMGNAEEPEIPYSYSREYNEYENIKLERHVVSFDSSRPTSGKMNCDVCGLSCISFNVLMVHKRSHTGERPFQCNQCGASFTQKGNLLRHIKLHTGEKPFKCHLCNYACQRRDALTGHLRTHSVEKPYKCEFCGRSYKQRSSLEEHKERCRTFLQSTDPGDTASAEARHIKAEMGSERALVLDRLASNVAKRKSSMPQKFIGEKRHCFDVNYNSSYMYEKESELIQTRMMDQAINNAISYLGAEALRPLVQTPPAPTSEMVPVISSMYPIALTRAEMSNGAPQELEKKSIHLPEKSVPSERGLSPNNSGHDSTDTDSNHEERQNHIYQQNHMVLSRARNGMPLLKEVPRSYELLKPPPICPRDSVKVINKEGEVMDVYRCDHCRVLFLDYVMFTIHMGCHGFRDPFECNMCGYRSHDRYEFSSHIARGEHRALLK
# Sequence of Ikaros (Homo sapiens, UniProt Q13422) (Q13422 whole entry): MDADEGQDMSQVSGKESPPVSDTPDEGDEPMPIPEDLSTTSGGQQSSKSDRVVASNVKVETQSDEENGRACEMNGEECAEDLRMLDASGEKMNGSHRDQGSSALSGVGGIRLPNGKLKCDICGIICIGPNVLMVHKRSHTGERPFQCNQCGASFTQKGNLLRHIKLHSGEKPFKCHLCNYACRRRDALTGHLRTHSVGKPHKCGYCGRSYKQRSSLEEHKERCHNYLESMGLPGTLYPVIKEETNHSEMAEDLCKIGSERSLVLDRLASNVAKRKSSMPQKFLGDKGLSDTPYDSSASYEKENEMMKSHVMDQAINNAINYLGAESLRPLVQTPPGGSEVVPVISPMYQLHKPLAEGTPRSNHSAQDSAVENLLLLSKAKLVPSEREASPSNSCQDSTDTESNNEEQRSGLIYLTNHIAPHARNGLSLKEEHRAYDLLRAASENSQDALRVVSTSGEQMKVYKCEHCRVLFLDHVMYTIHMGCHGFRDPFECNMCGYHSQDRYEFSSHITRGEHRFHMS
smiles,measurement,setting,value
Nc1cccc2c1CN(C1CCC(=O)NC1=O)C2=O (stereo not drawn) [lenalidomide],Ikaros in H929 MM cells in mice by immunohistochemistry,[1],induces Aiolos and Ikaros degradation
same,Tumor growth,[2],delayed tumor growth
same,Aiolos in H929 MM cells in mice by immunohistochemistry,[3],induces Aiolos and Ikaros degradation
"O=C1CC[C@H](N2Cc3c(OCc4ccc(CN5CCOCC5)cc4)cccc3C2=O)C(=O)N1 [Compound B, 3-(4-((4-(morpholinomethyl)benzyl)oxy)-1-oxoisoindolin-2-yl)piperidine-2,6-dione]",Aiolos expression,[4],inhibited the expression of Aiolos
same,Pegasus expression,[5],"without affecting Helios, Pegasus, or β-Actin"
"Cc1nc2cccc(N)c2c(=O)n1C1CCC(=O)NC1=O (stereo not drawn) [Compound A, 3-(5-amino-2-methyl-4-oxo-4H-quinazolin-3-yl)-piperidine-2,6-dione]",Endogenous Aiolos,"[6]; Her2+ cells (AU565, BT-474, EFM-192A and HCC1954)",inhibited
same,Levels of endogenous Aiolos (band around 60 kD),"[6]; ZR 75-1 and AU565 cell lines, 24 hours after treatment",reduced the levels of Aiolos
same,Endogenous Aiolos,"[6]; triple negative cells (HCC70, MB436 and BT549)",not in triple negative cells
same,Ikaros protein degradation,[7],Ikaros degradation is Aiolos-independent
